Measured values reported in ChEMBL document CHEMBL1130747, “Synthesis of novel cyclic protease inhibitors using Grubbs olefin metathesis” (Bioorg Med Chem Lett, 1998).

Biological target: T1, Rhizopuspepsin (Rhizopus microsporus var. chinensis, UniProt P06026)
T1 sequence (P06026 whole entry): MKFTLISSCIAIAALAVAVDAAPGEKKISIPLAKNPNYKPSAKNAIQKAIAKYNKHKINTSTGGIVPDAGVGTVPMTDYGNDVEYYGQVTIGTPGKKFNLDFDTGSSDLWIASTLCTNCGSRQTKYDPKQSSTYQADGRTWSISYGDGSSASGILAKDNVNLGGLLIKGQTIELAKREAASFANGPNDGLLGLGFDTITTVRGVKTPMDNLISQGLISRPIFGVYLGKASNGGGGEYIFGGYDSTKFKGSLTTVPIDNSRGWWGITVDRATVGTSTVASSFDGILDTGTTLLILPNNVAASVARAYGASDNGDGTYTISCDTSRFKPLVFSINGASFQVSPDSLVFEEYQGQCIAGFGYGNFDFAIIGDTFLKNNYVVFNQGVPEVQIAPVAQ
Assay: Inhibition of Rhizopus chinensis pepsin using fluorescence assay

Ki | SMILES
1.31 nM | CC(C)[C@H]1NC(=O)[C@H](NC(=O)OC(C)(C)C)CCCCCCCC[C@H](CO)NC1=O
336 nM | CC(C)[C@H]1NC(=O)[C@H](NC(=O)OC(C)(C)C)CCC/C=C\CCC[C@H](CO)NC1=O
